Earlier results on three molecules are cited in US20050250838A1, “Formulation for sustained delivery” (priority 2004, published 2005).

Counter-ions that a name gives are not always drawn.

For series [1] the following is noted: at 6 weeks.

For `CNCCC(Oc1ccc(C(F)(F)F)cc1)c1ccccc1` (stereo not drawn) [fluoxetine], the response entry in series [1] is on record as “about 50%”.

As to `Fc1ccc([C@@H]2CCNC[C@H]2COc2ccc3c(c2)OCO3)cc1` [paroxetine hydrochloride hemihydrate], for the setting “water”, the solubility in water was 6000 to 12000 µg/mL.

Take `Fc1ccc([C@@H]2CCNC[C@H]2COc2ccc3c(c2)OCO3)cc1` [amorphous paroxetine hydrochloride, paroxetine hydrochloride]: the solubility entry (at room temperature (U.S. Pat. No. 6,660,298)) is given as “up to 75 mg/ml”.
